Experimental data: the Deep4Chem optical property database
Values joined by “and” are separate entries in the source; they are usually repeats but may differ in a detail not shown here. Equal entries are not always repeated. One block for each compound: values may come before it.

Test: solvent given as SMILES
[1] = in O=P(c1ccccc1)(c1ccccc1)c1ccccc1Oc1ccccc1P(=O)(c1ccccc1)c1ccccc1

emission maximum (in ClCCl): 380 nm
Compound: c1ccc(N(c2ccccc2)c2ccc(-n3ccc4cc(-c5ccc6c(c5)C(c5ccccc5)(c5ccccc5)c5ccccc5-6)ccc43)cc2)cc1

Compound: CC1(C)c2ccccc2N(c2ccc3c(c2)Oc2ccccc2S3(=O)=O)c2ccccc21
emission maximum (in Cc1ccccc1): 451 nm
emission maximum [1]: 458 nm

Compound: Cc1cc(N2c3ccccc3C(C)(C)c3ccccc32)ccc1-c1cc(-c2ccc(N3c4ccccc4C(C)(C)c4ccccc43)cc2C)ncn1
emission maximum (in Cc1ccccc1): 477 nm
emission maximum [1]: 477 nm

emission maximum (in C1CCCCC1): 486 nm
emission maximum (in C1CCOC1): 509 nm
emission maximum (in C1COCCO1): 509 nm
emission maximum (in CC#N): 514 nm
emission maximum (in CCCCCC): 487 nm
emission maximum (in CO): 503 nm
emission maximum (in ClC(Cl)Cl): 501 nm
Compound: F[B-]1(F)n2c(-c3ccccc3)cnc2-c2cccc[n+]21

emission maximum (in CCCCCC): 568 nm
emission maximum (in ClCCl): 593 nm
Compound: CC(C)[Si](C#Cc1c2ccccc2c(C#C[Si](C(C)C)(C(C)C)C(C)C)c2nc3cc4c(cc3nc12)C1c2ccccc2C4c2ccccc21)(C(C)C)C(C)C

Compound: CC[N+]1(CC)CN2C(=N1)C(C(=O)O)=Cc1c2ccc2ccccc12
emission maximum (in O): 487 nm

Compound: CCc1c(C)[nH]c(C2=[N+]3C(=Cc4c(C)c(CC)c(C)n4[B-]3(F)F)c3ccccc32)c1C
emission maximum (in C1CCOC1): 644 nm
emission maximum (in CC#N): 643 nm
emission maximum (in CCCCCC): 641 nm
emission maximum (in CO): 642 nm
emission maximum (in Cc1ccccc1): 651 nm
emission maximum (in ClCCl): 650 nm

emission maximum (in ClCCl): 571 nm
Compound: CCC(C)[Si](C#Cc1c2nc3c4ccccc4c(=O)c4ccccc4c3nc2c(C#C[Si](C(C)CC)(C(C)CC)C(C)CC)c2nc3c4ccccc4c(=O)c4ccccc4c3nc12)(C(C)CC)C(C)CC (stereo not drawn)

emission maximum (in CS(C)=O): 424 nm
Compound: Cn1c2ccc(S(=O)(=O)Cl)cc2c(=O)c2cc(S(=O)(=O)Cl)ccc21

emission maximum (in ClCCl): 455 nm
Compound: CC(C)[Si](C#Cc1ccc(C#C[Si](C(C)C)(C(C)C)C(C)C)c2nc3c4ccccc4c(=O)c4ccccc4c3nc12)(C(C)C)C(C)C

emission maximum (in ClC(Cl)Cl): 392 nm
Compound: O=C1[C@@H]2[C@H](C(=O)N1c1cccc3cc4ccccc4cc13)[C@@H]1C=C[C@H]2C1

emission maximum (in C1CCCCC1): 426 nm
emission maximum (in CC#N): 558 nm
emission maximum (in CC(C)O): 493 nm
emission maximum (in CO): 512 nm
emission maximum (in CS(C)=O): 568 nm
emission maximum (in ClC(Cl)Cl): 509 nm
emission maximum (in c1ccccc1): 483 nm and 486 nm
Compound: CN(C)c1ccc2nc(-c3ccc(C(=O)O)cc3)sc2c1

emission maximum (in CCOC(C)=O): 442 nm
Compound: CCn1c(-c2ccc(-c3ccc4c(c3)C(C)(C)c3ccccc3-4)cc2)c(-c2ccc3ccccc3c2)c(-c2ccc3ccccc3c2)c1-c1ccc(-c2ccc3c(c2)C(C)(C)c2ccccc2-3)cc1

emission maximum (in ClCCl): 493 nm
Compound: COc1ccc(C#CC2=C3CCc4ccccc4C3=[O+][B-](F)(F)O2)cc1

emission maximum (in C1CCCCC1): 447 nm
emission maximum (in C1CCOC1): 518 nm
emission maximum (in CC#N): 565 nm
emission maximum (in CS(C)=O): 568 nm
emission maximum (in ClCCl): 534 nm
Compound: c1ccc(N(c2ccccc2)c2ccc(-c3nc(-c4ccc(N(c5ccccc5)c5ccccc5)cc4)c4ccccc4n3)cc2)cc1

emission maximum (in CC#N): 515 nm
emission maximum (in ClCCl): 512 nm
Compound: COc1ccc(-c2cc3c(s2)c(C(C)=O)cc(=O)n3Cc2ccccc2)cc1

Compound: O=C(/C=C/c1ccc(O)c(O)c1)O[C@H](Cc1ccc(O)c(O)c1)C(=O)O
emission maximum (in C1CCOC1): 397 nm
emission maximum (in CC#N): 413 nm
emission maximum (in CCCC#N): 406 nm
emission maximum (in CCO): 417 nm
emission maximum (in CN(C)C=O): 420 nm
emission maximum (in CO): 432 nm
emission maximum (in CS(C)=O): 432 nm
emission maximum (in ClCCl): 396 nm
emission maximum (in O): 444 nm

emission maximum (in CC#N): 407 nm
emission maximum (in CCCCCCCCCCCCCCCC): 383 nm
emission maximum (in CO): 442 nm
emission maximum (in ClC(Cl)Cl): 398 nm
emission maximum (in c1ccccc1): 393 nm
Compound: O=C1c2ccccc2NC(c2ccccc2)N1Cc1ccccc1 (stereo not drawn)

emission maximum (in ClC(Cl)Cl): 411 nm
Compound: CC(=O)OCCN1C(=O)c2cccc3c(Oc4ccc(C=O)cc4)ccc(c23)C1=O

emission maximum (in ClCCl): 559 nm
Compound: Clc1nnc(Oc2ccc(N(c3ccc(Br)cc3)c3ccc(Br)cc3)cc2)nn1

emission maximum (in CCO): 586 nm
Compound: CCOC(=O)c1cc(C(=O)NCc2ccccc2)c2ccc(N(C)C)cc2n1

emission maximum (in ClCCl): 432 nm
Compound: CC1CCC(=CS/C=C/c2ccc(-c3ccc(/C=C/SC=C4CCC(C)CC4)cc3)cc2)CC1 (stereo not drawn)

Compound: CC1(C)c2ccccc2N(c2ccc(-c3cccc(C#N)c3)cc2)c2ccccc21
emission maximum (in Cc1ccccc1): 431 nm
emission maximum (in N#Cc1ccc2c(c1)c1ccccc1n2-c1cccc(-n2c3ccccc3c3ccccc32)c1): 436 nm

emission maximum (in CS(C)=O): 417 nm
Compound: O=c1c2cc(S(=O)(=O)Cl)ccc2[nH]c2ccc(S(=O)(=O)Cl)cc12

emission maximum (in C1CCOC1): 448 nm
emission maximum (in CC#N): 485 nm
emission maximum (in CCCCCC): 415 nm
emission maximum (in CCO): 521 nm
emission maximum (in CCOC(C)=O): 450 nm
emission maximum (in CS(C)=O): 494 nm
emission maximum (in ClCCl): 469 nm
emission maximum (in O): 504 nm
Compound: CCCCCCCCCCCCOc1cc2cc(N(C)C)ccc2cc1C=O

emission maximum (in C1CCOC1): 396 nm
Compound: F[Si-](F)(c1c2ccccc2cc2ccccc12)(c1c2ccccc2cc2ccccc12)c1c2ccccc2cc2ccccc12

emission maximum (in CCO): 507 nm
Compound: CN(C)c1ccc(-c2cc[n+](C)cc2)s1

emission maximum (in CC#N): 442 nm
emission maximum (in CCO): 442 nm
emission maximum (in ClCCl): 445 nm
Compound: C[P+]1(c2ccccc2)c2ccccc2-c2sc3ccccc3c21 (stereo not drawn)

emission maximum (in CCOC(C)=O): 379 nm
emission maximum (in CS(C)=O): 440 nm
emission maximum (in ClCCl): 420 nm
Compound: Cc1cc2c3ccccc3oc2c2c1c1ccccc1n2-c1ccc(C#N)cc1

emission maximum (in C1CCOC1): 338 nm
Compound: F[Si-](F)(c1ccccc1)(c1ccccc1)c1cccc2ccccc12

emission maximum (in C1CCCCC1): 377 nm
Compound: CCCC1(CCC)c2cc(-c3ccco3)ccc2-c2ccc(-c3ccco3)cc21

emission maximum (in CO): 400 nm
Compound: Oc1ccc(-c2nc(-c3ccccc3)c(-c3ccccc3)[nH]2)cc1

emission maximum (in C1CCOC1): 399 nm
Compound: F[B-]1(F)Oc2c(-c3cccc4c3O[B-](F)(F)[n+]3c(-c5ccccc5)c(-c5ccccc5)n(-c5ccc(C(F)(F)F)cc5)c3-4)cccc2-c2n(-c3ccc(C(F)(F)F)cc3)c(-c3ccccc3)c(-c3ccccc3)[n+]21

emission maximum (in CC#N): 407 nm
Compound: C[C@]12SC(=O)C=C1c1nc(-c3ccccc3O)[nH]c1C1=CC(=O)S[C@@]12C

emission maximum (in C1CCOC1): 621 nm
emission maximum (in CCCCCC): 520 nm
emission maximum (in ClCCl): 638 nm
emission maximum (in c1ccccc1): 580 nm
Compound: O=C1OC(=O)c2ccc(N(c3ccccc3)c3ccc4ccccc4c3)c3cccc1c23

Compound: CCCC1(CCC)c2cc(-c3ccc(-c4ccccc4)cc3)ccc2-c2ccc(-c3ccc4c(c3)C(CCC)(CCC)c3cc(-c5ccc(-c6ccccc6)cc5)ccc3-4)cc21
emission maximum (in Cc1ccccc1): 402 nm

emission maximum (in CO): 605 nm
Compound: CCCCCCc1cc(B(c2c(C)cc(C)cc2C)c2c(C)cc(C)cc2C)c(-c2sc(CCCCCC)cc2P(=O)(c2ccccc2)c2ccccc2)s1

emission maximum (in C1CCOC1): 368 nm
emission maximum (in C1COCCO1): 369 nm
Compound: c1ccc(-c2ccc(-c3ccc(-c4ccccc4)cc3)cc2)cc1

emission maximum (in O): 708 nm
Compound: CC1=CC(C)=[N+]2C1=C(c1ccc(O)cc1)c1c(C)cc(/C=C/C=C3/N(C)c4ccccc4C3(C)C)n1[B-]2(F)F

emission maximum (in C1COCCO1): 546 nm
emission maximum (in CC#N): 550 nm
emission maximum (in CCO): 550 nm
emission maximum (in CCOC(C)=O): 544 nm
emission maximum (in O): 560 nm
Compound: CN1C(=O)/C(=C/c2ccncc2)N=C1/C=C/c1ccccc1

emission maximum (in CC#N): 461 nm
Compound: Oc1ccccc1/C=N/CC/N=C/c1ccccc1O

emission maximum (in CCO): 470 nm
emission maximum (in ClCCl): 460 nm
Compound: CCN(CC)c1ccc2cc(C#N)/c(=N\C(=O)c3ccco3)oc2c1

emission maximum (in C1CCCCC1): 443 nm
emission maximum (in CO): 505 nm
emission maximum (in CS(C)=O): 483 nm
emission maximum (in ClC(Cl)Cl): 453 nm
emission maximum (in c1ccccc1): 443 nm
Compound: CCC1=C(C)C(=O)n2c1cc1[nH]c(C(=O)OC(C)(C)C)c(C)c1c2=O

Compound: Cc1ccc(N(c2ccc(C)cc2)c2c3ccccc3c(N(c3ccc(C)cc3)c3ccc(C)cc3)c3ccccc23)cc1
emission maximum (in Cc1ccccc1): 533 nm

emission maximum (in ClCCl): 563 nm
Compound: CCC1=C(CC)c2cccc3c2c(cc2nc4ccccc4nc23)O1

emission maximum (in C1CCOC1): 419 nm
emission maximum (in CN(C)C=O): 423 nm
Compound: O=C(O)c1ccc2cc3cc(C(=O)O)ccc3cc2c1

emission maximum (in CO): 588 nm
emission maximum (in O): 620 nm
emission maximum (in OCCO): 594 nm
emission maximum (in [2H]O[2H]): 620 nm
Compound: O=C(O)C1=CC(=C/C=[N+]2/c3cc(O)c(C[C@@H]4O[C@H](CO)[C@@H](O)C(O)[C@H]4O)cc3C[C@H]2C(=O)O)C=C(C(=O)O)N1 (stereo partly drawn)

Compound: CCCCCCOc1ccc(C#Cc2ccc(-c3ccc(-c4ccc(C#Cc5ccc(OCCCCCC)c(OCCCCCC)c5)s4)c4nsnc34)s2)cc1OCCCCCC
emission maximum (in C1CCCCC1): 600 nm
emission maximum (in CCOC(C)=O): 635 nm
emission maximum (in CN(C)C=O): 666 nm
emission maximum (in COc1ccccc1): 636 nm
emission maximum (in Cc1ccccc1): 620 nm
emission maximum (in ClC(Cl)Cl): 648 nm
emission maximum (in ClCCCl): 650 nm
emission maximum (in ClCCl): 649 nm

emission maximum (in ClCCl): 376 nm
Compound: O=P(c1ccccc1)(c1ccccc1)c1cccc(-c2nc3ccccc3n2-c2cccc(P(=O)(c3ccccc3)c3ccccc3)c2)c1

Compound: O=C(N/N=C/c1ccccc1O)c1ccccc1
emission maximum (in C1CCOC1): 306 nm
emission maximum (in CC#N): 373 nm
emission maximum (in CC(C)=O): 426 nm
emission maximum (in CCO): 429 nm
emission maximum (in CN(C)C=O): 458 nm
emission maximum (in CS(C)=O): 552 nm
emission maximum (in ClCCl): 392 nm

emission maximum (in C1CCCCC1): 393 nm
emission maximum (in CC#N): 474 nm and 475 nm
emission maximum (in CC(C)O): 468 nm and 488.03 nm
emission maximum (in CO): 484 nm and 483 nm
emission maximum (in CS(C)=O): 486 nm and 486.82 nm
emission maximum (in ClC(Cl)Cl): 442 nm and 443 nm
emission maximum (in c1ccccc1): 429 nm and 441.38 nm
Compound: CN(C)c1ccc2nc(-c3ccccc3)sc2c1

emission maximum (in C1CCOC1): 292.44 nm
emission maximum (in CCO): 292.99 nm
emission maximum (in CO): 292.44 nm
emission maximum (in O): 293.54 nm
emission maximum (in O=CO): 294.16 nm
Compound: N#Cc1ccc(C[C@H](N)C(=O)O)cc1

Compound: CC(=O)[B-]1(C(C)=O)OC(c2ccccc2)=CC(c2ccc3ccccc3c2)=[O+]1
emission maximum (in CC#N): 510 nm
emission maximum (in ClC(Cl)(Cl)Cl): 419 nm
